This is an account of results in PMC11225352, “A multicenter, randomized, double-blind, placebo-controlled ascending dose study to evaluate the safety, tolerability, pharmacokinetics (PK) and pharmacodynamic (PD) effects of Posiphen in subjects with early Alzheimer’s Disease” (Alzheimer's Research & Therapy, 2024).

A short description of test [1]: Cognitive and behavioral outcomes (ADAS-cog12, MMSE, NPI). In kind it is in vivo, human. An excerpt:
The screening visit included history, examination, review of medical records and medications, vital signs, physical and neurological examination, cognitive testing with the MMSE and Logical Memory test (Wechsler Memory Scale-revised), EKG, blood draw for routine laboratory tests, lumbar puncture and if needed, brain MRI. If eligible, participants underwent a baseline visit, with cognitive assessment using the MMSE and ADAS-cog12, behavioral assessments, Research Satisfaction Survey, safety assessments, and review of concurrent medications and adverse events, and they received a supply of the study drug (or placebo), which they started the day after the baseline visit. A telephone assessment was done at day 14 after baseline, to assess adverse events, concomitant medication changes and remind participants/study partners about the confinement visit. A pre-confinement visit took place 1–3 days before the confinement visit, following treatment for 20 days, and included physical and neurological examination, cognitive and behavioral assessments (see below), safety assessments (including clinical safety labs), and a review of compliance, concurrent medications and adverse events. The study drug or placebo was continued until the day before the confinement visit.
Safety measures included adverse events, vital signs, EKG and laboratory tests. The Mini-Mental State Examination (MMSE), Alzheimer’s Disease Assessment Scale-cognitive (ADAS-cog12) and Neuropsychiatric Inventory (NPI) were used as cognitive and behavioral outcomes,.
(§1) Changes in CSF biomarkers from the screening to confinement (sample at time of placement of catheter) were compared in the treatment and placebo groups by ANOVA, with models that included age, sex and baseline MMSE, and further analysis stratified by treatment dose. A similar approach was taken to analyze changes in MMSE, ADAS-cog and NPI. Data were analyzed using R (version 4.2.2).

Test [2] concerns APP. More on the design: method as in PMID 36641607. Conditions: mild AD (n = 14), 80 mg once per day, up to 27 days; not significant; cited from earlier work.
In test [3] the test system is Aβ40. Briefly: CSF Aβ40 level, screening to day 21 (MSD immunoassay). It is filed as in vivo, human. Conditions: ANOVA with age and sex as covariates; p = 0.39. The protocol:
For biochemical analysis to derive data for SILK, ^13C6-leucine was analyzed in plasma and CSF by mass spectrometry, and Aβ peptides in CSF were analyzed by immunoprecipitation-mass spectrometry (IP-MS) as previously described, by C2N Diagnostics (St Louis, MO). CSF levels of sAPPα, sAPPβ, Aβ38, 40 and 42 were analyzed by the ADCS Biomarker Core using Mesoscale Discovery (MSD) electrochemiluminescent assays (Mesoscale Discovery, Rockville, MD). Levels of Posiphen and its N1 and N8 metabolites in plasma and CSF were measured by Charles River Laboratories (Montreal, CA) by high-performance liquid chromatographic mass spectrometry, with use of deuterated Posiphen (procured by Charles River Laboratories) as an internal standard.
as §1

Test [4] deals with APP mRNA. Further details: method as in PMID 20558735, PMID 22693681. Particulars: resulting in decreased production of APP and Aβ; cited from earlier work.

For the molecule `CN1CC[C@]2(C)c3cc(OC(=O)Nc4ccccc4)ccc3N(C)[C@H]12` [Posiphen], the “NPI, mean change from baseline to pre-confinement” value in test [1] (Posiphen (n = 11), mITT, baseline 8.36 ± 9.52) is given as -0.45 ± 7.01. Moreover, the “MMSE, Pre-confinement” value in test [1] (Posiphen (n = 11), mITT, baseline 24.36 ± 2.8) is 24.18 ± 2.52. Further, the “ADAS-Cog12, Pre-confinement” value in test [1] (Posiphen (n = 11), mITT, baseline 25.73 ± 8.76) is recorded as 25.18 ± 5.33. Also, the “ADAS-cog, MMSE or NPI total scores, change from baseline to pre-confinement visit” value in test [1] (Posiphen or placebo groups) was “no significant changes”. For the same molecule, the “MMSE, Mean change” value in test [1] (baseline to pre-confinement, Posiphen (n = 11), placebo 1.14 ± 2.12) is given as -0.18 ± 2.09. For the same molecule, the “ADAS-Cog12, Mean change” value in test [1] (baseline to pre-confinement, Posiphen (n = 11), placebo -1.57 ± 5.19) was -0.55 ± 6.04. The “ADAS-cog change, t” value in test [1] (contrast 60 mg – placebo, multiple linear regression (age, sex, APOE genotype, baseline score, arm), p 0.68) came to 0.42; in test [1] (contrast 120 mg - placebo, multiple linear regression, p 0.30), 1.1; in test [1] (contrast 180 mg - placebo, multiple linear regression, p 0.77) it was 029. Further, the “MMSE change, t” value in test [1] (contrast 60 mg – placebo, multiple linear regression, p 0.006) is given as -3.32; in test [1] (contrast 120 mg - placebo, multiple linear regression, p 0.24) it was 1.2. For the same molecule, the “NPI change, t” value is given as 0.68 in test [1] (contrast 60 mg – placebo, multiple linear regression, p 0.51); 2.73 in test [1] (contrast 120 mg - placebo, multiple linear regression, p 0.02); 0.12 in test [1] (contrast 180 mg - placebo, multiple linear regression, p 0.91). Besides, the “NPI, Treatment difference (Posiphen – placebo)” value in test [1] (mITT, p = 0.11) is given as 7.10 ± 4.07 p = 0.11. For the same molecule, in test [1] (mITT, p = 0.32), the “ADAS-Cog12, Treatment difference (Posiphen – placebo)” value is recorded as 3.00 ± 2.94 p = 0.32. For the same molecule, in test [1] (mITT, p= 0.23), the “MMSE, Treatment difference (Posiphen – placebo)” value is on record as -1.6 ± 1.28 p= 0.23. Also, the “CSF APP before and after treatment” value in test [2] is recorded as “small reduction”. Moreover, in test [3], the “CSF Aβ40, Treatment difference (Posiphen – placebo)” value was -1.4 (1.57) p = 0.39 pg/mL. Moreover, the “translation of APP mRNA” value in test [4] is listed as “decreased”.
